Measurements as given in PubChem BioAssay AID1919009 (Molecular Pharmacology Branch, DTP, NCI, 2023).

Tested on: K24384-001-R-PDC complex spheroid growth
Experiment: Anticancer human tumor K24384-001-R-PDC patient-derived pancreatic adenocarcinoma cell line growth inhibition [AhR]
Conditions: for IC50: curve of first compound; for viability, T/C: stronger effect = lower value
Outline: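 Agents were dosed in half-log steps down from roughly clinical Cmax, or from 10 microM where Cmax was unknown, alone and with AhR antagonists. Read-out: percent test/control growth of tumor spheroids containing HUVEC and MSC stromal cells.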
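For viability, T/C in this document: percent of DMSO vehicle-treated spheroid viability set as 100%.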

`CC1(C)CCC(CN2CCN(c3ccc(C(=O)NS(=O)(=O)c4ccc(NCC5CCOCC5)c([N+](=O)[O-])c4)c(Oc4cnc5[nH]ccc5c4)c3)CC2)=C(c2ccc(Cl)cc2)C1` + Cc1ccccc1N=Nc1ccc(NC(=O)c2ccnn2C)c(C)c1 was tested. Which IC50 (second compound 0.1 µM) did it give?
The IC50 was over 10 µM.

What about the IC50 (second compound 0.316 µM) of the same molecule?
Its IC50 is over 10 µM.

And the IC50 (second compound 1 µM)?
The IC50 was 9.66 µM.

What about the IC50 (second compound 3.16 µM) of the same molecule?
The IC50 was 9.75 µM.

What about the IC50 (second compound 10 µM) of the same molecule?
The IC50 was over 10 µM.

And the viability, T/C (second compound 0.1 µM, first compound 0.0316 µM)?
The viability, T/C was 111%.

What about the viability, T/C (second compound 0.1 µM, first compound 0.1 µM) of the same molecule?
Its viability, T/C is 119%.

And the viability, T/C (second compound 0.1 µM, first compound 0.316 µM)?
Its viability, T/C is 113%.

And the viability, T/C (second compound 0.1 µM, first compound 1 µM)?
The viability, T/C was 102%.

And the viability, T/C (second compound 0.1 µM, first compound 3.16 µM)?
Its viability, T/C is 86.5%.

What about the viability, T/C (second compound 0.1 µM, first compound 10 µM) of the same molecule?
Its viability, T/C is 52.3%.

And the viability, T/C (second compound 0.316 µM, first compound 0.0316 µM)?
Its viability, T/C is 123%.

And the viability, T/C (second compound 0.316 µM, first compound 0.1 µM)?
Its viability, T/C is 112%.

And the viability, T/C (second compound 0.316 µM, first compound 0.316 µM)?
Its viability, T/C is 132%.

What about the viability, T/C (second compound 0.316 µM, first compound 1 µM) of the same molecule?
The viability, T/C was 114%.

And the viability, T/C (second compound 0.316 µM, first compound 3.16 µM)?
Its viability, T/C is 118%.

What about the viability, T/C (second compound 0.316 µM, first compound 10 µM) of the same molecule?
Its viability, T/C is 51.7%.

And the viability, T/C (second compound 1 µM, first compound 0.0316 µM)?
Its viability, T/C is 108%.

And the viability, T/C (second compound 1 µM, first compound 0.1 µM)?
The viability, T/C was 102%.

And the viability, T/C (second compound 1 µM, first compound 0.316 µM)?
Its viability, T/C is 122%.

And the viability, T/C (second compound 1 µM, first compound 1 µM)?
The viability, T/C was 112%.

And the viability, T/C (second compound 1 µM, first compound 3.16 µM)?
Its viability, T/C is 114%.

What about the viability, T/C (second compound 1 µM, first compound 10 µM) of the same molecule?
Its viability, T/C is 48.1%.

And the viability, T/C (second compound 3.16 µM, first compound 0.0316 µM)?
The viability, T/C was 111%.

And the viability, T/C (second compound 3.16 µM, first compound 0.1 µM)?
Its viability, T/C is 107%.

And the viability, T/C (second compound 3.16 µM, first compound 0.316 µM)?
The viability, T/C was 114%.

And the viability, T/C (second compound 3.16 µM, first compound 1 µM)?
The viability, T/C was 112%.

What about the viability, T/C (second compound 3.16 µM, first compound 3.16 µM) of the same molecule?
The viability, T/C was 112%.

What about the viability, T/C (second compound 3.16 µM, first compound 10 µM) of the same molecule?
Its viability, T/C is 48.5%.

What about the viability, T/C (second compound 10 µM, first compound 0.0316 µM) of the same molecule?
Its viability, T/C is 116%.

What about the viability, T/C (second compound 10 µM, first compound 0.1 µM) of the same molecule?
Its viability, T/C is 147%.

What about the viability, T/C (second compound 10 µM, first compound 0.316 µM) of the same molecule?
The viability, T/C was 131%.

What about the viability, T/C (second compound 10 µM, first compound 1 µM) of the same molecule?
Its viability, T/C is 129%.

What about the viability, T/C (second compound 10 µM, first compound 3.16 µM) of the same molecule?
The viability, T/C was 111%.

What about the viability, T/C (second compound 10 µM, first compound 10 µM) of the same molecule?
Its viability, T/C is 57.8%.

With `CCN(c1cc(-c2ccc(CN3CCOCC3)cc2)cc(C(=O)NCc2c(C)cc(C)[nH]c2=O)c1C)C1CCOCC1` + Cc1ccccc1N=Nc1ccc(NC(=O)c2ccnn2C)c(C)c1 as the molecule, how does the IC50 (second compound 0.1 µM) read?
Its IC50 is over 3 µM.

And the IC50 (second compound 0.316 µM)?
The IC50 was over 3 µM.

What about the IC50 (second compound 1 µM) of the same molecule?
The IC50 was over 3 µM.

What about the IC50 (second compound 3.16 µM) of the same molecule?
The IC50 was over 3 µM.

What about the IC50 (second compound 10 µM) of the same molecule?
The IC50 was over 3 µM.

And the viability, T/C (second compound 0.1 µM, first compound 0.00949 µM)?
Its viability, T/C is 116%.

And the viability, T/C (second compound 0.1 µM, first compound 0.03 µM)?
Its viability, T/C is 114%.

And the viability, T/C (second compound 0.1 µM, first compound 0.0949 µM)?
Its viability, T/C is 124%.

What about the viability, T/C (second compound 0.1 µM, first compound 0.3 µM) of the same molecule?
The viability, T/C was 113%.

What about the viability, T/C (second compound 0.1 µM, first compound 0.949 µM) of the same molecule?
The viability, T/C was 80%.

And the viability, T/C (second compound 0.1 µM, first compound 3 µM)?
The viability, T/C was 125%.

What about the viability, T/C (second compound 0.316 µM, first compound 0.00949 µM) of the same molecule?
The viability, T/C was 131%.

What about the viability, T/C (second compound 0.316 µM, first compound 0.03 µM) of the same molecule?
The viability, T/C was 126%.

And the viability, T/C (second compound 0.316 µM, first compound 0.0949 µM)?
The viability, T/C was 135%.

And the viability, T/C (second compound 0.316 µM, first compound 0.3 µM)?
The viability, T/C was 112%.

What about the viability, T/C (second compound 0.316 µM, first compound 0.949 µM) of the same molecule?
Its viability, T/C is 106%.

And the viability, T/C (second compound 0.316 µM, first compound 3 µM)?
Its viability, T/C is 91.2%.

What about the viability, T/C (second compound 1 µM, first compound 0.00949 µM) of the same molecule?
The viability, T/C was 119%.

And the viability, T/C (second compound 1 µM, first compound 0.03 µM)?
Its viability, T/C is 134%.

And the viability, T/C (second compound 1 µM, first compound 0.0949 µM)?
The viability, T/C was 131%.

And the viability, T/C (second compound 1 µM, first compound 0.3 µM)?
Its viability, T/C is 106%.

And the viability, T/C (second compound 1 µM, first compound 0.949 µM)?
The viability, T/C was 87.3%.

And the viability, T/C (second compound 1 µM, first compound 3 µM)?
Its viability, T/C is 87.8%.

And the viability, T/C (second compound 3.16 µM, first compound 0.00949 µM)?
The viability, T/C was 109%.

And the viability, T/C (second compound 3.16 µM, first compound 0.03 µM)?
Its viability, T/C is 117%.

What about the viability, T/C (second compound 3.16 µM, first compound 0.0949 µM) of the same molecule?
The viability, T/C was 116%.

What about the viability, T/C (second compound 3.16 µM, first compound 0.3 µM) of the same molecule?
Its viability, T/C is 107%.

And the viability, T/C (second compound 3.16 µM, first compound 0.949 µM)?
Its viability, T/C is 130%.

And the viability, T/C (second compound 3.16 µM, first compound 3 µM)?
Its viability, T/C is 105%.

What about the viability, T/C (second compound 10 µM, first compound 0.00949 µM) of the same molecule?
The viability, T/C was 141%.

What about the viability, T/C (second compound 10 µM, first compound 0.03 µM) of the same molecule?
The viability, T/C was 138%.

What about the viability, T/C (second compound 10 µM, first compound 0.0949 µM) of the same molecule?
Its viability, T/C is 147%.

And the viability, T/C (second compound 10 µM, first compound 0.3 µM)?
Its viability, T/C is 137%.

What about the viability, T/C (second compound 10 µM, first compound 0.949 µM) of the same molecule?
The viability, T/C was 128%.

What about the viability, T/C (second compound 10 µM, first compound 3 µM) of the same molecule?
Its viability, T/C is 110%.
